The values that follow come from patent publication US11149040B2, “Fused triazole agonists of the APJ receptor” (AMGEN INC., priority 2017, dated 2021).

SMILES strings stand for the structures. Where only a bound is given, the exact number is not on record here.

human APJ receptor, sequence (P35414 whole entry): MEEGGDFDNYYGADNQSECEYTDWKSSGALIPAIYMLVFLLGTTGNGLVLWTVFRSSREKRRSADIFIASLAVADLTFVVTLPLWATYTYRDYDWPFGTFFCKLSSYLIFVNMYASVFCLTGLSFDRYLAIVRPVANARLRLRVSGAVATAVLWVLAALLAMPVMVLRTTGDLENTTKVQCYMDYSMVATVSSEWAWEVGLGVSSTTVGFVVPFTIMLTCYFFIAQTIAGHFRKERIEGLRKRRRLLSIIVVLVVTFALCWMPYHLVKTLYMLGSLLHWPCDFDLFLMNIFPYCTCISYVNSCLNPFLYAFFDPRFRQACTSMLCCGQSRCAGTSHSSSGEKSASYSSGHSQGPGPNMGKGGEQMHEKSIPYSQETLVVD

For this test, the target named is human APJ receptor (Homo sapiens (Human), UniProt P35414). Nature of the test: [35S]GTPγS binding assay on membranes from CHO cells stably expressing human APJ receptor. The format is biochemical. Conditions: read-out: Activity hAPJ SPA EC50 IP. The procedure:
[^35S]GTPγS Binding The human APJ receptor was cloned by polymerase chain reaction and the gene encoding the receptor was subcloned in pFLAG-CMV™-3 expression vector (Sigma, Saint Louis, Mo. USA) in-house at Amgen. A GTPγS binding assay was performed on membranes prepared from CHO cells stably expressing human APJ receptor. The optimum experimental conditions for the concentrations of GDP, MgCl2, and NaCl in the assay buffer were initially determined. […] Incubation was at RT for 90 min and the microplate was read using a ViewLux™ ultra HTS Microplate Imager (PerkinElmer, Inc.). All the results presented are means of several independent experiments and analyzed by non-linear regression methods using the commercially available program Prism (GraphPad, San Diego, Calif.) providing the EC50 values detailed in Table 13.
Broadly, the EC50 is the concentration giving half of the maximal effect. As to `COC[C@@H]1COc2ccc(OC)nc2-c2nnc(NS(=O)(=O)[C@@H](C)[C@H](C)c3ncc(C)cn3)n21` (mixture of isomers) [Example 10.0, (2S,3R)-N-((5R)-10-methoxy-5-(methoxymethyl)-5,6-dihydropyrido[2,3-f][1,2,4]triazolo[4,3-d][1,4]oxazepin-3-yl)-3-(5-methyl-2-pyrimidinyl)-2-butanesulfonamide and (2S,3R)-N-((5S)-10-methoxy-5-(methoxymethyl)-5,6-dihydropyrido[2,3-f][1,2,4]triazolo[4,3-d][1,4]oxazepin-3-yl)-3-(5-methyl-2-pyrimidinyl)-2-butanesulfonamide], the EC50 is 790 nM. Regarding `COC[C@@H]1COc2ccc(OC)nc2-c2nnc(NS(=O)(=O)[C@@H](C)[C@@H](OC(C)C)c3ncc(C)cn3)n21` (mixture of isomers) [Example 11.0, (1S,2S)-N-((5R)-10-methoxy-5-(methoxymethyl)-5,6-dihydropyrido[2,3-f][1,2,4]triazolo[4,3-d][1,4]oxazepin-3-yl)-1-(5-methyl-2-pyrimidinyl)-1-(2-propanyloxy)-2-propanesulfonamide and (1S,2S)-N-((5S)-10-methoxy-5-(methoxymethyl)-5,6-dihydropyrido[2,3-f][1,2,4]triazolo[4,3-d][1,4]oxazepin-3-yl)-1-(5-methyl-2-pyrimidinyl)-1-(2-propanyloxy)-2-propanesulfonamide], the 50% effective concentration (EC50) turned out to be 41 nM.

On to `COC[C@@H]1COc2cc(F)c(F)cc2-c2nnc(NS(=O)(=O)[C@@H](C)[C@@H](OC(C)C)c3ncc(C)cn3)n21` (mixture of isomers) [Example 16.0, (1S,2S)-N-((5R)-9,10-difluoro-5-(methoxymethyl)-5,6-dihydro[1,2,4]triazolo[4,3-d][1,4]benzoxazepin-3-yl)-1-(5-methyl-2-pyrimidinyl)-1-(2-propanyloxy)-2-propanesulfonamide and (1S,2S)-N-((5S)-9,10-difluoro-5-(methoxymethyl)-5,6-dihydro[1,2,4]triazolo[4,3-d][1,4]benzoxazepin-3-yl)-1-(5-methyl-2-pyrimidinyl)-1-(2-propanyloxy)-2-propanesulfonamide], for which the EC50 is 1700 nM. Regarding `COC[C@@H]1COc2ccc(F)cc2-c2nnc(NS(=O)(=O)[C@@H](C)[C@@H](OC(C)C)c3ncc(C)cn3)n21` (mixture of isomers) [Example 23.0, (1S,2S)-N-((5R)-10-fluoro-5-(methoxymethyl)-5,6-dihydro[1,2,4]triazolo[4,3-d][1,4]benzoxazepin-3-yl)-1-(5-methyl-2-pyrimidinyl)-1-(2-propanyloxy)-2-propanesulfonamide and (1S,2S)-N-((5S)-10-fluoro-5-(methoxymethyl)-5,6-dihydro[1,2,4]triazolo[4,3-d][1,4]benzoxazepin-3-yl)-1-(5-methyl-2-pyrimidinyl)-1-(2-propanyloxy)-2-propanesulfonamide], the EC50 is 37 nM. As to `Cc1cnc([C@H](OC(C)C)[C@H](C)S(=O)(=O)Nc2nnc3n2[C@H](CO)COc2ncccc2-3)nc1` (mixture of isomers) [Example 30.0, (1S,2S)-N-((5R)-5-(hydroxymethyl)-5,6-dihydropyrido[3,2-f][1,2,4]triazolo[4,3-d][1,4]oxazepin-3-yl)-1-(5-methyl-2-pyrimidinyl)-1-(2-propanyloxy)-2-propanesulfonamide and (1S,2S)-N-((5S)-5-(hydroxymethyl)-5,6-dihydropyrido[3,2-f][1,2,4]triazolo[4,3-d][1,4]oxazepin-3-yl)-1-(5-methyl-2-pyrimidinyl)-1-(2-propanyloxy)-2-propanesulfonamide], the EC50 came to 460 nM. In the case of `CC(C)O[C@@H](c1ncc(Cl)cn1)[C@H](C)S(=O)(=O)Nc1nnc2n1[C@H](CO)COc1ncccc1-2` (mixture of isomers) [Example 31.0, (1S,2S)-1-(5-chloro-2-pyrimidinyl)-N-((5R)-5-(hydroxymethyl)-5,6-dihydropyrido[3,2-f][1,2,4]triazolo[4,3-d][1,4]oxazepin-3-yl)-1-(2-propanyloxy)-2-propanesulfonamide and (1S,2S)-1-(5-chloro-2-pyrimidinyl)-N-((5S)-5-(hydroxymethyl)-5,6-dihydropyrido[3,2-f][1,2,4]triazolo[4,3-d][1,4]oxazepin-3-yl)-1-(2-propanyloxy)-2-propanesulfonamide], the EC50 is 720 nM.

Turning to `COC[C@@H]1COc2ncccc2-c2nnc(NS(=O)(=O)[C@@H](C)[C@@H](OC(C)C)c3ncc(C)cn3)n21` (mixture of isomers) [Example 32.0, (1S,2S)-N-((5R)-5-(methoxymethyl)-5,6-dihydropyrido[3,2-f][1,2,4]triazolo[4,3-d][1,4]oxazepin-3-yl)-1-(5-methyl-2-pyrimidinyl)-1-(2-propanyloxy)-2-propanesulfonamide and (1S,2S)-N-((5S)-5-(methoxymethyl)-5,6-dihydropyrido[3,2-f][1,2,4]triazolo[4,3-d][1,4]oxazepin-3-yl)-1-(5-methyl-2-pyrimidinyl)-1-(2-propanyloxy)-2-propanesulfonamide], the EC50 stood at 140 nM. For `COC[C@@H]1COc2c(OC)cccc2-c2nnc(NS(=O)(=O)[C@@H](C)[C@@H](OC(C)C)c3ncc(C)cn3)n21` (mixture of isomers) [Example 33.0, (1S,2S)-N-((5R)-8-methoxy-5-(methoxymethyl)-5,6-dihydro[1,2,4]triazolo[4,3-d][1,4]benzoxazepin-3-yl)-1-(5-methyl-2-pyrimidinyl)-1-(2-propanyloxy)-2-propanesulfonamide and (1S,2S)-N-((5S)-8-methoxy-5-(methoxymethyl)-5,6-dihydro[1,2,4]triazolo [4,3-d][1,4]benzoxazepin-3-yl)-1-(5-methyl-2-pyrimidinyl)-1-(2-propanyloxy)-2-propanesulfonamide], the EC50 is 15 nM. On to `CO[C@H](c1ncc(C)cn1)[C@H](C)S(=O)(=O)Nc1nnc2n1[C@H](CO)COc1ncccc1-2` (mixture of isomers) [Example 36.0, (1R,2S)-N-((5R)-5-(hydroxymethyl)-5,6-dihydropyrido[3,2-f][1,2,4]triazolo[4,3-d][1,4]oxazepin-3-yl)-1-methoxy-1-(5-methyl-2-pyrimidinyl)-2-propanesulfonamide and (1R,2S)-N-((5S)-5-(hydroxymethyl)-5,6-dihydropyrido[3,2-f][1,2,4]triazolo[4,3-d][1,4]oxazepin-3-yl)-1-methoxy-1-(5-methyl-2-pyrimidinyl)-2-propanesulfonamide], for which the EC50 was 1800 nM. On to `COC[C@@H]1COc2ncccc2-c2nnc(NS(=O)(=O)[C@@H](C)[C@@H](OC(C)C)c3ncc(Cl)cn3)n21` (mixture of isomers) [Example 37.0, (1S,2S)-1-(5-chloro-2-pyrimidinyl)-N-((5R)-5-(methoxymethyl)-5,6-dihydropyrido[3,2-f][1,2,4]triazolo[4,3-d][1,4]oxazepin-3-yl)-1-(2-propanyloxy)-2-propanesulfonamide and (1S,2S)-1-(5-chloro-2-pyrimidinyl)-N-((5S)-5-(methoxymethyl)-5,6-dihydropyrido[3,2-f][1,2,4]triazolo[4,3-d][1,4]oxazepin-3-yl)-1-(2-propanyloxy)-2-propanesulfonamide], for which the EC50 was found to be 30 nM. Regarding `COC[C@@H]1COc2ccc(F)cc2-c2nnc(NS(=O)(=O)CCc3ncc(C)cn3)n21` (mixture of isomers) [Example 42.0, N-((5R)-10-fluoro-5-(methoxymethyl)-5,6-dihydro[1,2,4]triazolo[4,3-d][1,4]benzoxazepin-3-yl)-2-(5-methyl-2-pyrimidinyl)ethanesulfonamide and N-((5S)-10-fluoro-5-(methoxymethyl)-5,6-dihydro[1,2,4]triazolo[4,3-d][1,4]benzoxazepin-3-yl)-2-(5-methyl-2-pyrimidinyl)ethanesulfonamide], the EC50 turned out to be 4100 nM. As to `CO[C@H](c1ncc(C)cn1)[C@H](C)S(=O)(=O)Nc1nnc2n1[C@H](COC(C)C)COc1ncccc1-2` (mixture of isomers) [Example 56.0, (1R,2S)-N-((R)-5-(isopropoxymethyl)-5,6-dihydropyrido[3,2-f][1,2,4]triazolo[4,3-d][1,4]oxazepin-3-yl)-1-methoxy-1-(5-methylpyrimidin-2-yl)propane-2-sulfonamide and (1R,2S)-N-((S)-5-(isopropoxymethyl)-5,6-dihydropyrido[3,2-f][1,2,4]triazolo[4,3-d][1,4]oxazepin-3-yl)-1-methoxy-1-(5-methylpyrimidin-2-yl)propane-2-sulfonamide], the EC50 was found to be 2200 nM.

Consider `Cc1cnc([C@@H](OC(C)C)[C@H](C)S(=O)(=O)Nc2nnc3n2[C@H](CO)COc2ncccc2-3)nc1` (mixture of isomers) [Example 57.0, (1R,2S)-N-((5R)-5-(hydroxymethyl)-5,6-dihydropyrido[3,2-f][1,2,4]triazolo[4,3-d][1,4]oxazepin-3-yl)-1-(5-methyl-2-pyrimidinyl)-1-(2-propanyloxy)-2-propanesulfonamide and (1R,2S)-N-((5S)-5-(hydroxymethyl)-5,6-dihydropyrido[3,2-f][1,2,4]triazolo[4,3-d][1,4]oxazepin-3-yl)-1-(5-methyl-2-pyrimidinyl)-1-(2-propanyloxy)-2-propanesulfonamide], for which the EC50 was over 12500 nM.
